From patent publication US20160075991A1, “Process for Preparing Starter Cultures of Lactic Acid Bacteria” (INSTITUT NATIONAL DE LA RECHERCHE, priority 1998, published 2016) come the findings set out here.

Type in all cases: cell-based
The subject of test [1] is Lactococcus lactis subsp. cremoris strain MG1363. Kind of test: Survival of the lactic acid bacteria during storage at 4° C. (Example 3). Conditions: for Number of cells per ml: porphyrin compound and aeration, 1% glucose M17, storage at 4° C. Here is the method: A laboratory medium, i.e. M17 supplemented with 1% of glucose, is inoculated with Lactococcus lactis subsp. cremoris strain MG1363 in the form of a 1/1000 dilution of a saturated culture. The cultures are then divided into two equal parts, and hemin is added to one of these two cultures to give a final concentration of 10 μg/ml. […] Aliquots of the two cultures are removed regularly during the exponential growth phase in order to monitor viability, rate of growth and pH. After 24 h of growth, the cultures are placed (stored) in a 30° C. incubator without shaking, and aliquots are removed every 24 h in order to monitor the viability of the cells. The Lactococcus lactis subsp. cremoris strain MG1363 was cultured as in the experiment described in Example 2, but the storage, which is carried out 24 h after inoculation, is at 4° C. instead of at 30° C.

Test [2] shares this test system. The test is described as follows: Culturing in the presence of protoporphyrin IX (Example 1.2). The settings on record: for Concentration of lactic acid / Final pH / Number of viable cells / OD600 nm: 1% glucose, 24 h. As for the experimental part:
A laboratory medium (M17 supplemented with 1% glucose) is inoculated with the Lacrococcus lactis subsp. cremoris strain MG1363 in the form of a 1/1000 dilution of a saturated culture (prepared at 30° C. with no shaking). The inoculated medium contained or not protoporphyrin IX at a final concentration of 10 μg/ml (a 0.5 mg/ml stock solution is prepared by adding 100 mg of protoporphyin IX to 2 ml of 5N NaOH, to which 198 ml of water is then added; the solution is autoclaved at 120° C. for 20 minutes). For bacteria grown in medium containing protoporphyrin IX, cultures were maintained at 30° C. with shaking (250 rotations per minute) in order to ensure oxygenation, or without shaking as a control. Two other control cultures, without protoporphyin IX or without shaking, were grown at 30° C. in parallel. After 24 h of growth, aliquots are removed to measure the optical density at 600 nm (OD600 nm), the number of viable bacteria, the final pH and the concentration of lactate in the medium.

Test [3] has the same test system. Kind of test: Culturing in the presence of chlorophyllin (Example 1.3). The settings on record: cultures in the presence of chlorophyllin, not shaken. As for the experimental part: A laboratory medium (M17 supplemented with 1% glucose) is inoculated with the Lactococcus lactis subsp. cremoris strain MG1363 in the form of a 1/1000 dilution of a saturated culture (prepared at 30° C. with no shaking). The inoculated medium contained or not chlorophyllin (a degradation product of chlorophyll) at a final concentration of 10 μg/ml. In order for it to be active, the chlorophyllin was incubated beforehand in an acidic medium and in the presence of traces of iron in order to replace the Cu atom with an Fe atom. This can, for example, be done as follows: a) by incubating a concentrated solution of chlorophyllin for 24 h in a laboratory medium (M17 supplemented with glucose) which was inoculated with 10^6 lactococci per ml and maintained at 30° C. for 24 h. The supernatant containing the chlorophyllin at a concentration of 100 μg/ml is filtered and then added to the culture medium so as to obtain a final concentration of 10 μg/mi. b) by incubating a concentrated solution of chlorophyllin for 24 h in M17 at a pH of between 3 and 5 (acidified with HCl) and at a temperature of 4° C., 30° C. or 60° C. The pH is then readjusted to 7. […] The pH is then readjusted to 7. […]

The mark [4] stands for this setting: with protoporphyrin IX 10 μg/ml and aeration.
[5] abbreviates: with protoporphyrin IX 10 μg/ml but without aeration.

Turning to `C=CC1=C(C)c2cc3[nH]c(cc4nc(cc5[nH]c(cc1n2)c(C)c5CCC(=O)O)C(CCC(=O)O)=C4C)c(C)c3C=C` [protoporphyrin IX], the survival rate in test [1] (after 2 months at 4° C., cultured with porphyrin compound under aeration) is reported as approximately 1%. For the same compound, the “Number of cells per ml” value is on record as 6.4 × 10^9 cells per ml in test [1] (0 days after culture); 6.2 × 10^9 cells per ml in test [1] (1 day after culture); 5.6 × 10^9 cells per ml in test [1] (2 days after culture); 5.4 × 10^9 cells per ml in test [1] (3 days after culture); 4.0 × 10^9 cells per ml in test [1] (7 days after culture); 2.8 × 10^9 cells per ml in test [1] (8 days after culture). Moreover, the “Number of cells per ml” value in test [1] (9 days after culture) is 1.9 × 10^9 cells per ml; in test [1] (10 days after culture), 3.9 × 10^8 cells per ml; in test [1] (13 days after culture), 1.7 × 10^8 cells per ml; in test [1] (15 days after culture), 6.0 × 10^7 cells per ml; in test [1] (22 days after culture), 5.9 × 10^7 cells per ml; in test [1] (28 days after culture) it was 5.4 × 10^7 cells per ml. Also, the “Number of cells per ml” value in test [1] (36 days after culture) is given as 5.4 × 10^7 cells per ml; in test [1] (43 days after culture), 5.3 × 10^7 cells per ml; in test [1] (50 days after culture), 4.8 × 10^7 cells per ml; in test [1] (57 days after culture), 5.3 × 10^7 cells per ml. For the same compound, in test [2] (cells cultured in the presence of protoporphyrin IX and oxygen), the “production of lactic acid as share of the quantity of sugar added” value was “less than 40%”. For the same compound, the “pH of the culture (remains stable)” value in test [2] (protoporphyrin IX and oxygen) is on record as “approximately 5.5”. The entries for the “Concentration of lactic acid” value in test [2] (setting [4]) and in test [2] (setting [5]) were 1.9 g/L and 8.2 g/L, respectively. Moreover, the figures for the “Final pH” value in test [2] (setting [4]) and in test [2] (setting [5]) were 5.49 and 4.53, respectively. Besides, the “Number of viable cells” value in test [2] (setting [4]) is on record as 6.9 ×10^9; in test [2] (setting [5]) it was 2.7 ×10^9. Moreover, the OD600 nm in test [2] (setting [4]) turned out to be 4.6; in test [2] (setting [5]), 2.5.

Turning to chlorophyllin, in test [3], the “variation of OD600 nm and pH from the control” value is given as “No significant variation from the control”.
